Activity calls are given as the source filed them. No cut-off for these calls is given here. Bridge positions count the residues as written; N and C are the ends. Square brackets hold non-standard residues; d marks the D form. Peptide text beside a SMILES is read from it. S5 = C=CCCC[C@](C)(N)C(=O)O
Tests used:
[1] = test system: Human immunodeficiency virus 1; test: Binding affinity to cytoplasmic LLP1 domain of HIV-1 GP41 assessed as change in entropy by isothermal titration calorimetry
[2] = Volume of distribution at steady state in Sprague-Dawley rat at 1 mg/kg,iv administration measured upto 9 days by LC-MS/MS analysis; assay type: ADME, organism-based; conditions: in vivo, time < 9 day, read-out: Vdss
[3] = test system: ACH-2 cell line; test: Cytotoxicity against chidamide reactivated human ACH-2 cell line infected with latent HIV-1 assessed as reduction in cell viability at 1.25 to 5 uM; assay type: functional, cell-based; conditions: dose 1.25-5 µM
[4] = Toxicity in BALB/c mouse assessed as change in serum ALT level at 100 mg/kg,iv administration measured upto 6 days; assay type: organism-based; conditions: in vivo, 144 h, time < 6 day
[5] = Toxicity in Sprague-Dawley rat assessed as necrosis in liver at 50 mg/kg,iv administration measured after 14 days by hematoxylin and eosin staining based assay; assay type: organism-based; conditions: in vivo, 336 h, time 14 day
[6] = Toxicity in Sprague-Dawley rat assessed as histopathological change in kidney at 50 mg/kg,iv administration measured after 14 days by hematoxylin and eosin staining based assay; assay type: organism-based; conditions: in vivo, 336 h, time 14 day
[7] = Biodistribution in Sprague-Dawley rat brain assessed as fold increase in AUC at 1 mg/kg,iv administration measured after 12 days by LC-MS/MS analysis; assay type: ADME, organism-based; conditions: in vivo, 288 h, time 12 day
[8] = Toxicity in BALB/c mouse assessed as histopathological change in kidney at 20 mg/kg,iv administration measured after 14 days by hematoxylin and eosin staining based assay; assay type: organism-based; conditions: in vivo, 336 h, time 14 day
[9] = test system: Human immunodeficiency virus 1; test: Antiviral activity against T20-resistant HIV-1 NL4-3 harboring […] N38A and N42T mutant infected in human MT2 cells assessed as inhibition of viral growth pretreated with virus for 30 mins followed by infection with cells incubated for 72 hrs by ELISA; assay type: functional, organism-based
[10] = MRT in Sprague-Dawley rat at 10 mg/kg,iv administration measured upto 9 days by LC-MS/MS analysis; assay type: ADME, organism-based; conditions: in vivo, 216 h, time < 9 day
[11] = Toxicity in female BALB/c mouse assessed as change in body weight at 100 mg/kg,iv administration measured upto 14 days; assay type: organism-based; conditions: in vivo, 336 h, time < 14 day
[12] = Toxicity in female BALB/c mouse assessed as change in body weight at 20 mg/kg,iv administration measured upto 14 days; assay type: organism-based; conditions: in vivo, 336 h, time < 14 day
[13] = Toxicity in Sprague-Dawley rat assessed as cell degeneration in kidney at 50 mg/kg,iv administration measured after 14 days by hematoxylin and eosin staining based assay; assay type: organism-based; conditions: in vivo, 336 h, time 14 day
[14] = Stability in rat plasma assessed as parent compound remaining at 1 ug/ml incubated for 1 hr by LC-MS/MS analysis; assay type: ADME, cell-free; conditions: at 1 µg/mL, read-out: Stability
[15] = Biodistribution in Sprague-Dawley rat brain at 1 mg/kg,iv administration measured upto 12 days by LC-MS/MS analysis; assay type: ADME, organism-based; conditions: in vivo, 288 h, time < 12 day
[16] = Total clearance in Sprague-Dawley rat at 10 mg/kg,iv administration measured upto 9 days by LC-MS/MS analysis; assay type: ADME, organism-based; conditions: in vivo, 216 h, time < 9 day
[17] = Toxicity in Sprague-Dawley rat assessed as necrosis in kidney at 50 mg/kg,iv administration measured after 14 days by hematoxylin and eosin staining based assay; assay type: organism-based; conditions: in vivo, 336 h, time 14 day
[18] = Elimination half life in Sprague-Dawley rat at 1 mg/kg,iv administration measured upto 9 days by LC-MS/MS analysis; assay type: ADME, organism-based; conditions: in vivo, time < 9 day, read-out: beta t1/2 (converted)
[19] = Total clearance in Sprague-Dawley rat at 1 mg/kg,iv administration measured upto 9 days by LC-MS/MS analysis; assay type: ADME, organism-based; conditions: in vivo, time < 9 day
[20] = AUClast in Sprague-Dawley rat at 1 mg/kg,iv administration measured upto 9 days by LC-MS/MS analysis; assay type: ADME, organism-based; conditions: in vivo, time < 9 day
[21] = Toxicity in BALB/c mouse assessed as change in serum creatinine level at 20 mg/kg,iv administration measured upto 6 days; assay type: organism-based; conditions: in vivo, 144 h, time < 6 day
[22] = test system: Human immunodeficiency virus 1; test: Antiviral activity against HIV-1 Bal-R5 assessed as reduction in viral growth by measuring p24 antigen level incubated for 2 hrs by ELISA; assay type: functional, organism-based; conditions: Human immunodeficiency virus 1, Bal-R5, 2 h
[23] = test system: Human immunodeficiency virus 1; test: Antiviral activity against T20-resistant HIV-1 NL4-3 harboring […] N38A and N42T mutant assessed as reduction in viral growth by measuring p24 antigen level incubated for 2 hrs by ELISA; assay type: functional, organism-based
[24] = Elimination half life in Sprague-Dawley rat at 10 mg/kg,iv administration measured upto 9 days by LC-MS/MS analysis; assay type: ADME, organism-based; conditions: in vivo, time < 9 day, read-out: beta t1/2
[25] = test system: Human immunodeficiency virus 1; test: Binding affinity to cytoplasmic LLP1 domain of HIV-1 GP41 assessed as binding constant by isothermal titration calorimetry
[26] = test system: Human immunodeficiency virus 1; test: Antiviral activity against HIV-1 Bal-R5 infected in human CEMx174 5.25M7 cells assessed as inhibition of viral growth pretreated with virus for 30 mins followed by infection with cells incubated for 72 hrs by ELISA; assay type: functional, organism-based; conditions: Human immunodeficiency virus 1, Bal-R5, CEMx174 5.25M7
[27] = Biodistribution in Sprague-Dawley rat spleen assessed as fold increase in AUC at 1 mg/kg,iv administration measured after 12 days by LC-MS/MS analysis; assay type: ADME, organism-based; conditions: in vivo, 288 h, time 12 day
[28] = Cytotoxicity against human MT2 cells; assay type: toxicity, cell-based
[29] = MRT in Sprague-Dawley rat at 1 mg/kg,iv administration measured upto 9 days by LC-MS/MS analysis; assay type: ADME, organism-based; conditions: in vivo, time < 9 day
[30] = Drug concentration in Sprague-Dawley rat plasma at 10 mg/kg,iv administrated upto 8 days by LC-MS/MS analysis; assay type: ADME, organism-based; conditions: in vivo, 192 h, time < 8 day
[31] = test system: Human immunodeficiency virus 1; test: Binding affinity to cytoplasmic LLP1 domain of HIV-1 GP41 assessed as change in enthalpy by isothermal titration calorimetry
[32] = Stability in rat liver assessed as parent compound remaining at 1 ug/ml incubated for 1 hr by LC-MS/MS analysis; assay type: ADME, tissue-based; conditions: at 1 µg/mL, read-out: Stability
[33] = test system: Human immunodeficiency virus 1; test: Binding affinity to cytoplasmic LLP1 domain of HIV-1 GP41 by ELISA
[34] = test system: Human immunodeficiency virus 1; test: Antiviral activity against T20-resistant HIV-1 NL4-3 harboring […] V38E and N42S mutant infected in human MT2 cells assessed as inhibition of viral growth pretreated with virus for 30 mins followed by infection with cells incubated for 72 hrs by ELISA; assay type: functional, organism-based
[35] = Toxicity in Sprague-Dawley rat assessed as change in body weight at 50 mg/kg,iv administration measured upto 14 days; assay type: organism-based; conditions: in vivo, 336 h, time < 14 day
[36] = Proteolytic stability assessed as Pepsin (unknown origin) mediated compound degradation incubated for 4 hrs by LC-MS/MS analysis; assay type: ADME; conditions: human
[37] = Half life in Sprague-Dawley rat plasma at 50 mg/kg,po administrated for 15 hrs by LC-MS/MS analysis; assay type: ADME, organism-based
[38] = Toxicity in Sprague-Dawley rat assessed as change in serum ALT level at 50 mg/kg,iv administration measured upto 6 days; assay type: organism-based; conditions: in vivo, 144 h, time < 6 day
[39] = test system: ACH-2 cell line; test: Cytotoxicity against chidamide non-reactivated human ACH-2 cell line infected with latent HIV-1 assessed as reduction in cell viability at 1.25 to 5 uM; assay type: functional, cell-based; conditions: dose 1.25-5 µM

CC(=O)NCC(=O)N[C@@]1(C)CCC/C=C\CCC[C@@](C)(C(=O)N[C@@H](Cc2ccc(O)cc2)C(=O)N[C@@H](CC(C)C)C(=O)N[C@@]2(C)CCC/C=C\CCC[C@@](C)(C(=O)N[C@@H](Cc3ccc(O)cc3)C(=O)N[C@@H](Cc3c[nH]c4ccccc34)C(N)=O)NC(=O)[C@H](CC(C)C)NC(=O)[C@H](CC(C)C)NC(=O)[C@H](CC(N)=O)NC2=O)NC(=O)[C@H](CC(C)C)NC(=O)[C@H](C)NC(=O)[C@H](CCC(=O)O)NC1=O (Ac-G[S5]EAL[S5]YL[S5]NLL[S5]YW-NH2; staple (Z) 2-6, 9-13)
deltaS [1]: -70.2 cal/mol/deg
Vd [2]: 2.32 L/kg
Activity [3]: Active
Activity [4]: Non-Toxic
Activity [5]: Non-Toxic
Activity [6]: Non-Toxic
fold change (FC) [7]: 5
Activity [8]: Non-Toxic
IC50 [9]: 0.0122 µM
MRT [10]: 89.1 h
Activity [11]: Non-Toxic
Activity [12]: Non-Toxic
Activity [13]: Non-Toxic
remaining at 1 h, 1 ug/ml [14]: > 99%
Drug uptake [15]: Active
CL [16]: 0.012 L/h/kg
Activity [17]: Non-Toxic
half-life [18]: > 70 h
clearance [19]: 0.0186 L/h/kg
AUC(0-t) at 216 h [20]: 40.4 µg·h/mL
Activity [21]: Non-Toxic
EC50 [22]: 36.7 µM
EC50 [23]: 0.0231 µM
half-life [24]: > 70 h
K [25]: 2.77 10^5/M
IC50 [26]: 0.18 µM
fold change (FC) [27]: 10
CC50 [28]: 5.07 µM
MRT [29]: 71.1 h
Drug uptake [30]: Active
deltaH [31]: -2.84 10^4cal/mol
remaining at 1 h, 1 ug/ml [32]: 100%
Activity [33]: Dose-Dependent Effect
IC50 [34]: 0.0326 µM
Activity [35]: Non-Toxic
Stability [36]: Stable
half-life [37]: 41.2 h
Activity [38]: Non-Toxic
Activity [39]: inactive
